Laboratory results published in article PMC10861747, “In vitro evaluation of the reductive carbonyl idarubicin metabolism to evaluate inhibitors of the formation of cardiotoxic idarubicinol via carbonyl and aldo–keto reductases” (Archives of Toxicology, 2024).

Assays:
AKR1C3 [1] = target: T1, AKR1C3 (Homo sapiens, UniProt P42330); assay: inhibition of idarubicinol formation (UPLC-MS/MS) in HEK293 cells over-expressing AKR1C3, compared with empty-vector control; assay type: cell-based
T1 construct: AKR1C3 human ORF-Clone transiently over-expressed in HEK293 cells
T1 sequence (P42330 1-323): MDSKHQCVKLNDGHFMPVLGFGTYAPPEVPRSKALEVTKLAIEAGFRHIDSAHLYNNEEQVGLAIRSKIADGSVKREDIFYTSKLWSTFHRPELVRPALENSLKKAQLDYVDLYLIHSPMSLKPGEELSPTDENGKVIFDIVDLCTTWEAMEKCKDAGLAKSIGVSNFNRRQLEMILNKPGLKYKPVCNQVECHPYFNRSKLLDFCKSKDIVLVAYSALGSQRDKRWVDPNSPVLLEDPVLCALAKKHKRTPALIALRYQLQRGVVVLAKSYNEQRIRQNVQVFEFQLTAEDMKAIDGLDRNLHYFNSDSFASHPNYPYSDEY

AKR1C3 [2] = target: T1, AKR1C3; assay: idarubicinol formation (UPLC-MS/MS) in AKR1C3-transfected HEK293 cells versus empty-vector cells, […] idarubicin; assay type: cell-based

Row | IC50 (AKR1C3 [1]) | Compound | idarubicinol formation (UPLC-MS/MS) in AKR1C3-transfected HEK293 cells versus em (AKR1C3 [2])
1 | 500 ± 100 nM | O=C1C[C@@]2(C(=O)N1)C(=O)N(Cc1ccc(Br)cc1F)C(=O)c1cccn12 [ranirestat] | 
2 |  | CC(=O)[C@]1(O)Cc2c(O)c3c(c(O)c2[C@@H](O[C@H]2C[C@H](N)[C@H](O)[C@H](C)O2)C1)C(=O)c1ccccc1C3=O [idarubicin] | the over-expression lead to a significantly higher idarubicinol formation in HEK293 cells
